Data on three compounds can be found in patent publication US4443436A, “C-20-Modified macrolide derivatives of the macrolide antibiotics tylosin, desmycosin, macrocin, and lactenocin” (Eli Lilly and Company, priority 1982, dated 1984).

Series [1] relates to Mycoplasma gallisepticum. The experiment in a line: MIC, broth-dilution microtiter test, Mycoplasma gallisepticum. The format is cell-based. The settings on record: Mycoplasma gallisepticum, broth-dilution microtiter. The text has this:
(§1) The MIC's in Table X were obtained using conventional broth-dilution microtiter tests.

Series [2] deals with Haemophilus influenzae R252. The series is described as follows: MIC, standard agar-dilution assay, Haemophilus influenzae R252. The format is cell-based.
Series [3] has as its system Mycoplasma gallisepticum. The series is described as follows: Antimycoplasmal activity in chicks infected with Mycoplasma gallisepticum. The format is in vivo, two- to three-day-old chicks. The following applies: gavage five times, equivalent to 0.5 g/gal; for Number with Antibodies/Number Tested: antibodies to M. gallisepticum; for Number with Antibodies/Number Tested / Number with Air-Sac Lesions/Number Treated: 21 days post-infection. As for the experimental part: In these tests infections were induced in chicks by injecting 0.2 ml of a broth culture of M. gallisepticum into the abdominal air sac of two- to three-day-old chicks. The compounds were administered by gavage five times at a dose equivalent to 0.5 g/gal (on the day of challenge once prior to and once following the challenge, two times on the next day and once on the third day). Twenty-one days post-infection, the chicks were weighed, a blood sample was taken, and the chicks were sacrificed. The presence or absence of air-sac lesions was recorded.

Another series concerns Mycoplasma hyorhinis. The series is described as follows: MIC, broth-dilution microtiter test, Mycoplasma hyorhinis. The class given is cell-based.
Source text: as §1

Series [4] concerns Pasteurella multocida 60A. The experiment in a line: MIC, broth-dilution microtiter test, Pasteurella multocida 60A. The following applies: Pasteurella multocida 60A; avian isolate; broth-dilution microtiter; read-out: MIC. The class given is cell-based.
Source text: as §1

In a further series the test system is Streptococcus bovis 80. The series is described as follows: MIC, broth-dilution microtiter test, Streptococcus bovis 80. The class given is cell-based. The following applies: Streptococcus bovis 80, broth-dilution microtiter.
Source text: as §1

Series [5] concerns Staphylococcus aureus V41. The experiment in a line: MIC, standard agar-dilution assay, Staphylococcus aureus V41. The format is cell-based.
Series [6] has as its system Streptococcus pyogenes C203. The experiment in a line: MIC, standard agar-dilution assay, Streptococcus pyogenes C203. The format is cell-based.
Series [7] concerns Staphylococcus aureus S13E. The experiment in a line: MIC, standard agar-dilution assay, Staphylococcus aureus S13E. The format is cell-based.
For a further series, the system named is Staphylococcus aureus. The experiment in a line: MIC, broth-dilution microtiter test, Staphylococcus aureus. The format is cell-based. The settings on record: broth-dilution microtiter.
Source text: as §1

Series [8] has as its system Pasteurella multocida 17E. The experiment in a line: MIC, broth-dilution microtiter test, Pasteurella multocida 17E. The class given is cell-based. The settings on record: Pasteurella multocida 17E; bovine isolate; broth-dilution microtiter; read-out: MIC.
Source text: as §1

For series [9], the system named is Haemophilus influenzae Holt. The series is described as follows: MIC, standard agar-dilution assay, Haemophilus influenzae Holt. The format is cell-based.
Series [10] relates to Streptococcus pneumoniae Park I. The series is described as follows: microbe, parasite or virus in culture. The format is cell-based. The following applies: Streptococcus pneumoniae Park I, agar dilution. Background: Agar dilution tests growth on a series of plates holding different concentrations.
Series [11] has as its system Streptococcus Group D X66. The experiment in a line: MIC, standard agar-dilution assay, Streptococcus Group D X66. The format is cell-based.
For the next series, the system named is Pasteurella multocida. The experiment in a line: Subcutaneous treatment of Pasteurella multocida-infected chicks. The format is in vivo, one-day-old chicks. The settings on record: 30 mg/kg × 2, 1 and 4 hours post-challenge. An outline of the steps:
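One-day-old chicks challenged subcutaneously with 0.1 ml of a 10^-4 dilution of a 20-hour tryptose broth culture of avian P. multocida. Compounds given by subcutaneous injection at 30 mg/kg 1 and 4 hours post-challenge, or by oral gavage 1 and 5 hours post-challenge.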

Series [12] deals with Streptococcus pyogenes C203. The experiment in a line: In vivo protection of mice experimentally infected with S. pyogenes C203. The following applies: mice, doses given 1 and 4 hours post-infection; for ED50: Streptococcus pyogenes. As for the experimental part: The C-20 modified derivatives of this invention have shown in vivo antimicrobial activity against experimentally-induced infections in laboratory animals. When two doses of test compound were administered to mice experimentally infected with S. pyogenes C203, the activity observed was measured as an ED50 value [effective dose in mg/kg to protect 50% of the test animals: see Warren Wick, et al., J. Bacteriol. 81, 233-235 (1961)].

The test system of a further series is Streptococcus Group 9960. The experiment in a line: MIC, standard agar-dilution assay, Streptococcus Group 9960. The class given is cell-based.
Series [13] relates to Staphylococcus aureus X400. The series is described as follows: MIC, standard agar-dilution assay, Staphylococcus aureus X400. The class given is cell-based.
Series [14] relates to Pasteurella hemolytica 22C. The experiment in a line: MIC, broth-dilution microtiter test, Pasteurella hemolytica 22C. The format is cell-based. The following applies: Pasteurella hemolytica 22C, broth-dilution microtiter.
Source text: as §1

The test system of series [15] is Staphylococcus epidermidis EPI1. The experiment in a line: MIC, standard agar-dilution assay, Staphylococcus epidermidis EPI1. The format is cell-based.
For a further series, the system named is Mycoplasma hyopneumoniae. The series is described as follows: MIC, broth-dilution microtiter test, Mycoplasma hyopneumoniae. The following applies: Mesomycoplasma hyopneumoniae; Mycoplasma hyopneumoniae; broth-dilution microtiter; read-out: MIC. The format is cell-based.
Source text: as §1

The test system of series [16] is Staphylococcus epidermidis EPI2. The experiment in a line: MIC, standard agar-dilution assay, Staphylococcus epidermidis EPI2. The format is cell-based. The settings on record: Staphylococcus epidermidis EPI2; agar dilution; read-out: MIC.
The next series concerns Mycoplasma synoviae. The series is described as follows: MIC, broth-dilution microtiter test, Mycoplasma synoviae. The format is cell-based. The following applies: Mycoplasmopsis synoviae; Mycoplasma synoviae; broth-dilution microtiter; read-out: MIC.
Source text: as §1

Series [17] has as its system Staphylococcus aureus X1.1. The series is described as follows: MIC, standard agar-dilution assay, Staphylococcus aureus X1.1. The format is cell-based.
A short description of the next series: in vivo. The following applies: dog, po, 15 mg/kg.

≈ marks a conversion by molar mass, not a printed value. Like-named read-outs stand apart in the source and are kept apart here. A value given as a limit tells only on which side of the number the result lay.

As to `CCC1OC(=O)CC(O)C(C)C(OC2OC(C)C(O)C(N(C)C)C2O)C(CCOC(=O)COc2ccccc2)CC(C)C(=O)C=CC(C)=CC1COC1OC(C)C(O)C(OC)C1OC` (centres unmarked) [Compound 26, 20-DH-20-O-(Phenoxyacetyl)desmycosin], the MIC with Mycoplasma gallisepticum [1] (Mycoplasmoides gallisepticum, read-out: MIC) was less than 0.05 µg/mL; in series [2] (Haemophilus influenzae, R252), 8 µg/mL (≈ 8.81 µM); with Mycoplasma hyorhinis (Mycoplasma), 50 µg/mL (≈ 55.1 µM); in series [4], 6.25 µg/mL (≈ 6.88 µM); with Streptococcus bovis 80 (Streptococcus equinus, read-out: MIC), 1.56 µg/mL (≈ 1.72 µM); in [5] (Staphylococcus aureus, V41), 0.25 µg/mL (≈ 0.275 µM). Moreover, the MIC in series [6] (Streptococcus pyogenes, C203) was determined as 0.12 µg/mL (≈ 0.132 µM); in series [7] (Staphylococcus aureus, S13E), 0.25 µg/mL (≈ 0.275 µM); in the series on Staphylococcus aureus (read-out: MIC), 0.39 µg/mL (≈ 0.429 µM); in series [8] it was 6.25 µg/mL (≈ 6.88 µM); in series [9] (Haemophilus influenzae) it was 8 µg/mL (≈ 8.81 µM); in [10] (read-out: MIC) it was 0.12 µg/mL (≈ 0.132 µM). In addition, the MIC was 0.5 µg/mL (≈ 0.551 µM) in series [11]; 0.5 µg/mL (≈ 0.551 µM) with Streptococcus Group 9960 (GROUP9960); 0.5 µg/mL (≈ 0.551 µM) in series [13] (Staphylococcus aureus, X400); 12.5 µg/mL (≈ 13.8 µM) in series [14] (read-out: MIC); 0.25 µg/mL (≈ 0.275 µM) in series [15] (Staphylococcus epidermidis, EPI1); 0.78 µg/mL (≈ 0.859 µM) in the series with Mycoplasma hyopneumoniae. For the same compound, the MIC in series [16] was 0.12 µg/mL (≈ 0.132 µM); in the series with Mycoplasma synoviae, 1.56 µg/mL (≈ 1.72 µM); in series [17] (Staphylococcus aureus, X1.1) it was 0.25 µg/mL (≈ 0.275 µM). Also, the “Number with Antibodies/Number Tested” value in the series on Mycoplasma gallisepticum [3] was 7/9. Also, the Mortality in the series on Mycoplasma gallisepticum [3] is reported as 1/10. In addition, the “Number with Air-Sac Lesions/Number Treated” value in the series with Mycoplasma gallisepticum [3] was 5/10. The “Number of Deaths/Number Treated” value in the series with Pasteurella multocida is given as 8/10. For the same compound, the ED50 – broadly, the dose that gives a 50% effect, or the effect in half of the subjects – in [12] (C203, sc, subcutaneous, read-out: ED50, Subcutaneous) is 2.4 mg/kg; in series [12] (C203, oral, read-out: ED50, Oral) it was greater than 25 mg/kg.

Regarding `CC[C@H]1OC(=O)[C@H](C)[C@@H](O[C@H]2C[C@@](C)(OC)[C@@H](O)[C@H](C)O2)[C@H](C)[C@@H](O[C@@H]2O[C@H](C)C[C@H](N(C)C)[C@H]2O)[C@](C)(O)C[C@@H](C)C(=O)[C@H](C)[C@@H](O)[C@]1(C)O` [erythromycin], the Cmax – broadly, the highest concentration seen after dosing – in “in vivo” worked out at 1600 ng/mL.

`CCC1OC(=O)CC(O)C(C)C(OC2OC(C)C(O)C(N(C)C)C2O)C(CCN=[N+]=[N-])CC(C)C(=O)C=CC(C)=CC1COC1OC(C)C(O)C(OC)C1OC` (centres unmarked) [Compound 44, 20-DH-DO-20-Azidodesmycosin]: the MIC in the series with Mycoplasma gallisepticum [1] came to 0.39 µg/mL (≈ 0.488 µM); in series [2] (Haemophilus influenzae R252, ampicillin-resistant strain, agar dilution), 4 µg/mL (≈ 5.01 µM); in the series on Mycoplasma hyorhinis (Mycoplasma hyorhinis, broth-dilution microtiter) it was 50 µg/mL (≈ 62.6 µM); in the series on Streptococcus bovis 80, 6.25 µg/mL (≈ 7.82 µM); in series [5] (Staphylococcus aureus V41, penicillin-resistant strain, agar dilution), 0.12 µg/mL (≈ 0.15 µM); in [6] (Streptococcus pyogenes C203, agar dilution), 0.25 µg/mL (≈ 0.313 µM). Further, the MIC in [7] (Staphylococcus aureus S13E, agar dilution) turned out to be 0.12 µg/mL (≈ 0.15 µM); in the series on Staphylococcus aureus, 0.39 µg/mL (≈ 0.488 µM); in series [9] (Haemophilus influenzae Holt, ampicillin-sensitive strain, agar dilution), 16 µg/mL (≈ 20 µM); in [10], 2 µg/mL (≈ 2.5 µM); in [11] (Streptococcus Group D X66, agar dilution) it was 4 µg/mL (≈ 5.01 µM); in the series on Streptococcus Group 9960 (Streptococcus Group 9960, agar dilution) it was 8 µg/mL (≈ 10 µM). Besides, the MIC in series [13] (Staphylococcus aureus X400, methicillin-resistant strain, agar dilution) was determined as 0.25 µg/mL (≈ 0.313 µM); in [14], 12.5 µg/mL (≈ 15.6 µM); in series [15] (Staphylococcus epidermidis EPI1, agar dilution), 0.12 µg/mL (≈ 0.15 µM); in series [17] (Staphylococcus aureus X1.1, agar dilution) it was 0.12 µg/mL (≈ 0.15 µM). For the same compound, in the series with Mycoplasma gallisepticum [3], the “Number with Antibodies/Number Tested” value is 9/10. In addition, the Mortality in the series with Mycoplasma gallisepticum [3] is listed as 0/10. Moreover, the “Number with Air-Sac Lesions/Number Treated” value in the series with Mycoplasma gallisepticum [3] is on record as 7/10. Moreover, in the series with Pasteurella multocida, the “Number of Deaths/Number Treated” value is on record as 9/10. For the same compound, in series [12] (oral), the “ED50, Oral” value turned out to be 13 mg/kg × 2. Also, in series [12] (subcutaneous), the “ED50, Subcutaneous” value is on record as 3.8 mg/kg × 2.
